Reference: patent US20100222311A1, “SOLID FORMULATIONS OF CRYSTALLINE COMPOUNDS” (PURDUE RESEARCH FOUNDATION, priority 2007, published 2010)

Columns and labels:
[1] = X-Ray diffraction, crystallinity of extrudates; assay type: physicochemical; details: excipient extruded alone
Procedure: The crystal structure was characterized by X-Ray diffraction (LabX XRD6000, Shimadzu, Columbia, Md., USA). […] The powdered samples were placed in aluminum holders and measured in the reflection mode from 10 to 40° 2θ. The scanning rate was 5°/min using a sampling pitch of 0.02°. Each sample was measured in duplicate.

[2] = Dissolution test, USP paddle apparatus, UV quantification of active pharmaceutical ingredient release; assay type: physicochemical; details: water, 37° C., paddle 50 rpm; pure drug powder
Procedure: Pre-mixed, dry powder materials (10% griseofulvin in α-mannitiol or 50% griseofulvin in α-mannitiol) were extruded using a production scale extruder (Leistritz Mikro GL 27-28D, Leistritz, Nuermber, Germany). […] The shear rate was varied on two levels during extrusion by varying the barrel length, the number of die holes and screw configuration. The extrudates were characterized by a dissolution test in accordance to the preliminary experiments (see FIG. 10). The dissolution tests were performed in a paddle apparatus (VK7030, Varian, Cary, N.C., USA) in accordance with the USP at 50 rpm. Six samples of each batch were tested in water at 37° C. as dissolution media. For the dissolution test, the extrudates were cut in small pieces of approximately 2 mg. The active pharmaceutical ingredient release was quantified with a UV-photometer (DU 640, Beckman, Fellerton, USA; Cary 300, Varian, Victoria, Australia) using different wavelengths (griseofulvin 296 nm, phenytoin 220 nm and spironolactone 243 nm) for 120 min using a cuvette with a 50 mm path length.

crystallization after extrusion, in words [1] | Structure (SMILES) | also measured
– | C[C@H](O)C(=O)O [L-(+)-lactic acid, L-(+)-Lactic acid] | time within which crystallization was completed [1]: ≤ 24 h
still predominantly amorphous after 24 h | OC[C@@H](O)[C@@H](O)[C@H](O)[C@@H](O)CO [Sorbitol, sorbitol] | –
rapid crystallization | OC[C@@H](O)[C@@H](O)[C@@H](O)CO [adonitol] | –
– | COC1=CC(=O)C[C@@H](C)[C@]12Oc1c(Cl)c(OC)cc(OC)c1C2=O [griseofulvin] | time to attain 50% release [2]: six
